For the assay, the target named is T1, PDE4D3 (Homo sapiens, UniProt Q08499).
T1 construct: GST
T1 sequence (Q08499 1-673 isoform Q08499-2): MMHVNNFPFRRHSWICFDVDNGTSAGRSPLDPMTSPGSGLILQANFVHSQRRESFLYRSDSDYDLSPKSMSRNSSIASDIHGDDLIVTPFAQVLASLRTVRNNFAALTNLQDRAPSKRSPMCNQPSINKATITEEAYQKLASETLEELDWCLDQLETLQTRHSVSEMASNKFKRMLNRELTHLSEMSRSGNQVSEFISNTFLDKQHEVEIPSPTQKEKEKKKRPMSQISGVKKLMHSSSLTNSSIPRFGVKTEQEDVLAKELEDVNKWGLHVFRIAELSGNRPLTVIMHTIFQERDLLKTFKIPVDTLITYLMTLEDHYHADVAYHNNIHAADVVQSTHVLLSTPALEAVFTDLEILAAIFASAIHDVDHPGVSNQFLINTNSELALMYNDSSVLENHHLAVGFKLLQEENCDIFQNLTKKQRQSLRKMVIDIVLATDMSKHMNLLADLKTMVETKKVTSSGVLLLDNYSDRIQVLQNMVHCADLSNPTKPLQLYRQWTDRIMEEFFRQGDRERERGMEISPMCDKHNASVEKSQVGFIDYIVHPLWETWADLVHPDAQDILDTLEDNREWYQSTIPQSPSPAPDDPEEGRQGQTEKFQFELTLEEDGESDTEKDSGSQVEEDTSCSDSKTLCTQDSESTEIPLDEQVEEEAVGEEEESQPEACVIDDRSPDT
It counts as biochemical. The note with it: GST-tagged PDE4D3, 200 nM FAM-cAMP, 11-point dose-response; read-out: PD4d3 pEC50 (converted).
Take `COc1ncc(Cn2cc(CO)nc2C)cc1-c1ccnc(OC(F)F)c1` [Example 315, [1-({5-[2-(Difluoromethoxy)pyridin-4-yl]-6-methoxypyridin-3-yl}methyl)-2-methyl-1H-imidazol-4-yl]methanol]: the EC50 is 100 to 1000 nM.

On to `COc1ncc(Cn2nc(CO)cc2C)cc1-c1ccnc(OC(F)F)c1` [Example 316, [1-({5-[2-(Difluoromethoxy)pyridin-4-yl]-6-methoxypyridin-3-yl}methyl)-5-methyl-1H-pyrazol-3-yl]methanol], for which the EC50 is 100 to 1000 nM.

As to `CCOc1ncc(Cn2nc(N)cc2C)cc1-c1cccc(Cl)c1` [Example 317, 1-{[5-(3-Chlorophenyl)-6-ethoxypyridin-3-yl]methyl}-5-methyl-1H-pyrazol-3-amine], the EC50 is 100 to 1000 nM.

Consider `COc1ncc(Cc2cnc(OCC(C)(C)O)nc2)cc1-c1cccc(Cl)c1` [Example 318, 1-[(5-{[5-(3-Chlorophenyl)-6-methoxypyridin-3-yl]methyl}pyrimidin-2-yl)oxy]-2-methylpropan-2-ol], for which the EC50 was 1000 to 10000 nM.

`CCOc1ncc(Cn2c(CO)cnc2C)cc1-c1cccc(Cl)c1` [Example 319, (1-{[5-(3-Chlorophenyl)-6-ethoxypyridin-3-yl]methyl}-2-methyl-1H-imidazol-5-yl)methanol]: the EC50 was 100 to 1000 nM.

As to `CCOc1ncc(Cn2nc(C)cc2CO)cc1-c1cccc(Cl)c1` [Example 320, (1-{[5-(3-Chlorophenyl)-6-ethoxypyridin-3-yl]methyl}-3-methyl-1H-pyrazol-5-yl)methanol], the EC50 was > 10000 nM.

Regarding `Cc1nc(CO)cn1Cc1cnc(OC(F)F)c(-c2cccc(Cl)c2)c1` [Example 321, (1-{[5-(3-Chlorophenyl)-6-(difluoromethoxy)pyridin-3-yl]methyl}-2-methyl-1H-imidazol-4-yl)methanol], the EC50 was 100 to 1000 nM.

In the case of `COc1ncc(Cn2cc(CO)nc2C)nc1-c1cccc(Cl)c1` [Example 322, (1-{[6-(3-Chlorophenyl)-5-methoxypyrazin-2-yl]methyl}-2-methyl-1H-imidazol-4-yl)methanol], the EC50 is 100 to 1000 nM.

Consider `CCOc1ncc(Cn2nc(CO)cc2C)nc1-c1cccc(Cl)c1` [Example 323, (1-{[6-(3-Chlorophenyl)-5-ethoxypyrazin-2-yl]methyl}-5-methyl-1H-pyrazol-3-yl)methanol], for which the EC50 is 1000 to 10000 nM.

In the case of `CCOc1ncc(Cn2cc(CO)nc2C)nc1-c1cccc(Cl)c1` [Example 324, (1-{[6-(3-Chlorophenyl)-5-ethoxypyrazin-2-yl]methyl}-2-methyl-1H-imidazol-4-yl)methanol], the EC50 is 100 to 1000 nM.

For the molecule `CCOc1ncc(Cn2nc(CO)cc2C)cc1-c1cccc(Cl)c1` [Example 325, (1-{[5-(3-Chlorophenyl)-6-ethoxypyridin-3-yl]methyl}-5-methyl-1H-pyrazol-3-yl)methanol], the EC50 is < 100 nM.

For `CCOc1ncc(Cn2cc(CO)nc2C)cc1-c1cccc(Cl)c1` [Example 326, (1-{[5-(3-Chlorophenyl)-6-ethoxypyridin-3-yl]methyl}-2-methyl-1H-imidazol-4-yl)methanol], the EC50 was < 100 nM.

Take `CCOc1ncc(Cn2cnc(CO)n2)cc1-c1cccc(OC)c1` [Example 327, (1-{[6-Ethoxy-5-(3-methoxyphenyl)pyridin-3-yl]methyl}-1H-1,2,4-triazol-3-yl)methanol]: the EC50 was < 100 nM.

On to `CCOc1ncc(Cn2cnc(CO)n2)cc1-c1ccc(Cl)cc1` [Example 328, (1-{[5-(4-Chlorophenyl)-6-ethoxypyridin-3-yl]methyl}-1H-1,2,4-triazol-3-yl)methanol], for which the EC50 was 100 to 1000 nM.

For `CCOc1ncc(Cn2cnc(CO)n2)cc1-c1cncc(Cl)c1` [Example 329, (1-{[5-(5-Chloropyridin-3-yl)-6-ethoxypyridin-3-yl]methyl}-1H-1,2,4-triazol-3-yl)methanol], the EC50 was 1000 to 10000 nM.

On to `CCOc1ncc(Cn2cnc(CO)n2)cc1-c1ccc(Cl)c(Cl)c1` [Example 330, (1-{[5-(3,4-Dichlorophenyl)-6-ethoxypyridin-3-yl]methyl}-1H-1,2,4-triazol-3-yl)methanol], for which the EC50 is 100 to 1000 nM.

On to `CCOc1ncc(Cn2cnc(CO)n2)cc1-c1ccc(F)c(C)c1` [Example 331, (1-{[6-Ethoxy-5-(4-fluoro-3-methylphenyl)pyridin-3-yl]methyl}-1H-1,2,4-triazol-3-yl)methanol], for which the EC50 is 100 to 1000 nM.

Consider `CCOc1ncc(Cn2cnc(CO)n2)cc1-c1cccc(C(F)(F)F)c1` [Example 332, [1-({6-Ethoxy-5-[3-(trifluoromethyl)phenyl]pyridin-3-yl}methyl)-1H-1,2,4-triazol-3-yl]methanol], for which the EC50 is 1000 to 10000 nM.

As for `CCOc1ncc(Cn2cnc(CO)n2)cc1-c1cccc(OC(F)(F)F)c1` [Example 333, [1-({6-Ethoxy-5-[3-(trifluoromethoxy)phenyl]pyridin-3-yl}methyl)-1H-1,2,4-triazol-3-yl]methanol], the EC50 was 100 to 1000 nM.

Turning to `CCOc1cccc(-c2cc(Cn3cnc(CO)n3)cnc2OCC)c1` [Example 334, (1-{[6-Ethoxy-5-(3-ethoxyphenyl)pyridin-3-yl]methyl}-1H-1,2,4-triazol-3-yl)methanol], the EC50 is 100 to 1000 nM.

Consider `CCOc1ncc(Cn2cnc(CO)n2)cc1-c1cccc(N(C)C)c1` [Example 335, [1-({5-[3-(Dimethylamino)phenyl]-6-ethoxypyridin-3-yl}methyl)-1H-1,2,4-triazol-3-yl]methanol], for which the EC50 is 1000 to 10000 nM.

On to `COc1ncc(Cn2cnc(CO)n2)cc1-c1cccc(Cl)c1` [Example 336, (1-{[5-(3-Chlorophenyl)-6-methoxypyridin-3-yl]methyl}-1H-1,2,4-triazol-3-yl)methanol], for which the EC50 was < 100 nM.

`CCOc1ncc(Cn2cnc(CO)n2)cc1-c1ccc(F)c(Cl)c1` [Example 337, (1-{[5-(3-Chloro-4-fluorophenyl)-6-ethoxypyridin-3-yl]methyl}-1H-1,2,4-triazol-3-yl)methanol]: the EC50 is < 100 nM.

Regarding `CCOc1ncc(Cn2cnc(CO)n2)cc1-c1cc(F)cc(F)c1` [Example 338, (1-{[5-(3,5-Difluorophenyl)-6-ethoxypyridin-3-yl]methyl}-1H-1,2,4-triazol-3-yl)methanol], the EC50 was 100 to 1000 nM.

Regarding `CCOc1ncc(Cn2cnc(CO)n2)cc1-c1ccnc(C(F)(F)F)c1` [Example 339, [1-({6-Ethoxy-5-[2-(trifluoromethyl)pyridin-4-yl]pyridin-3-yl}methyl)-1H-1,2,4-triazol-3-yl]methanol], the EC50 is 1000 to 10000 nM.

With `CCOc1ncc(Cn2cnc(CO)n2)cc1-c1ccc(F)c(F)c1` [Example 340, (1-{[5-(3,4-Difluorophenyl)-6-ethoxypyridin-3-yl]methyl}-1H-1,2,4-triazol-3-yl)methanol], the EC50 is < 100 nM.

In the case of `CCOc1ncc(Cn2cnc(CO)n2)cc1-c1cccc(F)c1` [Example 341, (1-{[6-Ethoxy-5-(3-fluorophenyl)pyridin-3-yl]methyl}-1H-1,2,4-triazol-3-yl)methanol], the EC50 is 100 to 1000 nM.

For `CCOc1ncc(Cn2cnc(CO)n2)cc1-c1ccc(F)cc1` [Example 342, (1-{[6-Ethoxy-5-(4-fluorophenyl)pyridin-3-yl]methyl}-1H-1,2,4-triazol-3-yl)methanol], the EC50 is 100 to 1000 nM.

For the molecule `COc1cc(-c2cc(Cn3cc(CO)nc3C)cnc2OC)ccc1F` [Example 343, (1-{[5-(4-Fluoro-3-methoxyphenyl)-6-methoxypyridin-3-yl]methyl}-2-methyl-1H-imidazol-4-yl)methanol], the EC50 was 1000 to 10000 nM.

Turning to `COc1ncc(Cn2cc(CO)nc2C)cc1-c1ccc(F)cc1` [Example 344, (1-{[5-(4-Fluorophenyl)-6-methoxypyridin-3-yl]methyl}-2-methyl-1H-imidazol-4-yl)methanol], the EC50 was 100 to 1000 nM.

Turning to `COc1ncc(Cn2cc(CO)nc2C)cc1-c1ccc(F)c(F)c1` [Example 345, (1-{[5-(3,4-Difluorophenyl)-6-methoxypyridin-3-yl]methyl}-2-methyl-1H-imidazol-4-yl)methanol], the EC50 is 100 to 1000 nM.

On to `COc1ncc(Cn2cc(CO)nc2C)cc1-c1cccc(Cl)c1` [Example 346, (1-{[5-(3-Chlorophenyl)-6-methoxypyridin-3-yl]methyl}-2-methyl-1H-imidazol-4-yl)methanol], for which the EC50 was 100 to 1000 nM.

Regarding `COc1ncc(Cc2cnc(N)nc2)cc1-c1ccnc(C#N)c1` [Example 347, 4-{5-[(2-Aminopyrimidin-5-yl)methyl]-2-methoxypyridin-3-yl}pyridine-2-carbonitrile], the EC50 is 100 to 1000 nM.

As to `N#CCc1ncc(Cc2cnc(OCC(F)F)c(-c3cccc(Cl)c3)c2)cn1` [Example 348, 2-(5-{[5-(3-Chlorophenyl)-6-(2,2-difluoroethoxy)pyridin-3-yl]methyl}pyrimidin-2-yl)acetonitrile], the EC50 was < 100 nM.

As for `CCOc1cc(-c2cc(Cc3cnc(N)nc3)cnc2OC)ccn1` [Example 349, 5-{[5-(2-Ethoxypyridin-4-yl)-6-methoxypyridin-3-yl]methyl}pyrimidin-2-amine], the EC50 was < 100 nM.

As for `CCOc1ncc(Cc2cnc(N)nc2)cc1-c1ccc(F)cc1` [Example 350, 5-{[6-Ethoxy-5-(4-fluorophenyl)pyridin-3-yl]methyl}pyrimidin-2-amine], the EC50 is < 100 nM.

In the case of `CCOc1ncc(Cc2cnc(N)nc2)cc1-c1ccc(Cl)cc1` [Example 351, 5-{[5-(4-Chlorophenyl)-6-ethoxypyridin-3-yl]methyl}pyrimidin-2-amine], the EC50 was 100 to 1000 nM.

Consider `CCOc1ncc(Cc2cnc(N)nc2)cc1-c1ccc(F)c(C)c1` [Example 352, 5-{[6-Ethoxy-5-(4-fluoro-3-methylphenyl)pyridin-3-yl]methyl}pyrimidin-2-amine], for which the EC50 is < 100 nM.

As for `CCOc1ncc(Cc2cnc(N)nc2)cc1-c1ccc(F)c(F)c1` [Example 353, 5-{[5-(3,4-Difluorophenyl)-6-ethoxypyridin-3-yl]methyl}pyrimidin-2-amine], the EC50 was < 100 nM.

As for `COc1cc(-c2cc(Cc3cnc(N)nc3)cnc2OC)ccc1F` [Example 354, 5-{[5-(4-Fluoro-3-methoxyphenyl)-6-methoxypyridin-3-yl]methyl}pyrimidin-2-amine], the EC50 was 100 to 1000 nM.

Values taken from US11279691B2, “Substituted pyridine and pyrazine compounds as PDE4 inhibitors” (Dart Neuroscience LLC, priority 2013, dated 2022).
